Our source for the MIC80 values is ChEMBL document CHEMBL3286225, “Novel carboline derivatives as potent antifungal lead compounds: design, synthesis, and biological evaluation” (ACS Med Chem Lett, 2014).

Structures are written as SMILES. Values after ≈ are worked out from the molar mass of the structure shown.

Holding throughout (type): functional
For experiment [1], the system named is Candida albicans. The experiment can be described thus: Antifungal activity against fluconazole-sensitive Candida albicans SC5314 after 24 hrs by serial dilution method. As to conditions: SC5314, 24 h.
Experiment [2] relates to Candida parapsilosis. In words: Antifungal activity against Candida parapsilosis ATCC 22019 after 24 hrs by serial dilution method. As to conditions: Lodderomyces parapsilosis, ATCC 22019, 24 h.
Experiment [3] relates to Cryptococcus neoformans. The experiment can be described thus: Antifungal activity against Cryptococcus neoformans 32609 after 72 hrs by serial dilution method. The note with it: Cryptococcus neoformans, 32609, 72 h.
Experiment [4] has as its system Nakaseomyces glabratus. The experiment can be described thus: Antifungal activity against Candida glabrata 537 after 24 hrs by serial dilution method. As to conditions: Nakaseomyces glabratus, 537, 24 h.
The subject of experiment [5] is Aspergillus fumigatus. In words: Antifungal activity against Aspergillus fumigatus 07544 after 7 days by serial dilution method. The note with it: Aspergillus fumigatus, 07544, 168 h.
The test system of experiment [6] is Trichophyton rubrum. In words: Antifungal activity against Trichophyton rubrum Cmccftla after 7 days by serial dilution method. As to conditions: 168 h.
Experiment [7] concerns Nannizzia gypsea. In words: Antifungal activity against Microsporum gypseum Cmccfmza after 7 days by serial dilution method. The note with it: 168 h.
Experiment [8] concerns Candida tropicalis. In words: Antifungal activity against Candida tropicalis after 7 days by serial dilution method. As to conditions: 168 h.
Experiment [9] deals with Pichia kudriavzevii. In words: Antifungal activity against Candida krusei 0710397 after 7 days by serial dilution method. The note with it: Pichia kudriavzevii, 0710397, 168 h.

What is called MIC80 is the lowest concentration that inhibits either 80% of growth or 80% of the strains tested, depending on the study. Read a low MIC80 as higher susceptibility. In the case of `CN1CCc2c(c3cc(C(F)(F)F)ccc3n2CCCOc2ccc(Cl)cc2)C1`, the MIC80 was over 64 µg/mL in experiment [1]; over 64 µg/mL in experiment [2]; 64 µg/mL (≈ 151 µM) in experiment [3]; 64 µg/mL (≈ 151 µM) in [4]; over 64 µg/mL in experiment [5]; 64 µg/mL (≈ 151 µM) in experiment [6]. In addition, the MIC80 in [7] worked out at 64 µg/mL (≈ 151 µM).
As to `CCCN1CCc2c(c3cc(Cl)ccc3n2CCCOc2ccc(Cl)cc2)C1`, the MIC80 is over 64 µg/mL in experiment [1]; 64 µg/mL (≈ 153 µM) in experiment [2]; 16 µg/mL (≈ 38.3 µM) in [3]; 16 µg/mL (≈ 38.3 µM) in [4]; over 64 µg/mL in [5]; over 64 µg/mL in [6]. In experiment [7], the MIC80 was 16 µg/mL (≈ 38.3 µM).
`CN1CCc2c(c3cc(Cl)ccc3n2Cc2cccc(Cl)c2)C1`: the MIC80 came out at 64 µg/mL (≈ 185 µM) in [1]; 32 µg/mL (≈ 92.7 µM) in experiment [2]; 16 µg/mL (≈ 46.3 µM) in experiment [3]; 16 µg/mL (≈ 46.3 µM) in experiment [4]; 32 µg/mL (≈ 92.7 µM) in experiment [5]; 8 µg/mL (≈ 23.2 µM) in [6]. Besides, in [7], the MIC80 was determined as 16 µg/mL (≈ 46.3 µM).
`CCN1CCc2c(c3cc(Cl)ccc3n2CCCOc2ccc(Cl)cc2)C1`: the MIC80 in experiment [1] is 64 µg/mL (≈ 159 µM); in [2], 64 µg/mL (≈ 159 µM); in experiment [3] it was 16 µg/mL (≈ 39.7 µM); in experiment [4] it was 32 µg/mL (≈ 79.3 µM); in [5] it was over 64 µg/mL; in experiment [6], over 64 µg/mL. Besides, the MIC80 in experiment [7] was determined as 32 µg/mL (≈ 79.3 µM).
As for `CN1CCc2c(c3cccc(Cl)c3n2CCCOc2ccc(Cl)cc2)C1`, the MIC80 in experiment [1] was 32 µg/mL (≈ 82.2 µM); in experiment [2], 32 µg/mL (≈ 82.2 µM); in experiment [3], 16 µg/mL (≈ 41.1 µM); in [4] it was 32 µg/mL (≈ 82.2 µM); in experiment [5], over 64 µg/mL; in [6], over 64 µg/mL. Further, in experiment [7], the MIC80 was found to be 16 µg/mL (≈ 41.1 µM).
On to `Fc1ccc2c(c1)c1c(n2CCCOc2ccccc2)CCNC1`, for which the MIC80 in experiment [8] was 64 µg/mL (≈ 197 µM); in experiment [9] it was 16 µg/mL (≈ 49.3 µM); in experiment [1], 8 µg/mL (≈ 24.7 µM); in [2] it was over 64 µg/mL; in experiment [3], 8 µg/mL (≈ 24.7 µM); in experiment [6], 8 µg/mL (≈ 24.7 µM). This compound also returned an MIC80 in [7] of 4 µg/mL (≈ 12.3 µM).
For the compound `CN1CCc2c(c3cc(Cl)ccc3n2Cc2ccc(Cl)cc2)C1`, the MIC80 worked out at 64 µg/mL (≈ 185 µM) in [1]; 64 µg/mL (≈ 185 µM) in [2]; 16 µg/mL (≈ 46.3 µM) in experiment [3]; 16 µg/mL (≈ 46.3 µM) in [4]; 64 µg/mL (≈ 185 µM) in experiment [5]; 64 µg/mL (≈ 185 µM) in experiment [6]. The compound further had an MIC80 in experiment [7] of 16 µg/mL (≈ 46.3 µM).
With `Cc1ccc2c(c1)c1c(n2CCCOc2cccc(Br)c2)CCNC1`, the MIC80 was 16 µg/mL (≈ 40.1 µM) in experiment [8]; 4 µg/mL (≈ 10 µM) in experiment [9]; 16 µg/mL (≈ 40.1 µM) in experiment [1]; 16 µg/mL (≈ 40.1 µM) in experiment [2]; 16 µg/mL (≈ 40.1 µM) in experiment [3]; 16 µg/mL (≈ 40.1 µM) in [6]. Besides, the MIC80 in [7] is 16 µg/mL (≈ 40.1 µM).
Consider `Fc1ccc(OCCCCCn2c3c(c4cc(F)ccc42)CNCC3)cc1`, for which the MIC80 in experiment [8] turned out to be 4 µg/mL (≈ 10.8 µM); in [9], 4 µg/mL (≈ 10.8 µM); in experiment [1], 16 µg/mL (≈ 43.2 µM); in experiment [2], 16 µg/mL (≈ 43.2 µM); in [3] it was 16 µg/mL (≈ 43.2 µM); in experiment [6], 32 µg/mL (≈ 86.4 µM). The same compound returned an MIC80 in experiment [7] of 8 µg/mL (≈ 21.6 µM).
Consider `Fc1ccc(OCCCn2c3c(c4cc(Cl)ccc42)CNCC3)cc1`, for which the MIC80 in experiment [8] came out at 4 µg/mL (≈ 11.1 µM); in experiment [9] it was 4 µg/mL (≈ 11.1 µM); in [1] it was 4 µg/mL (≈ 11.1 µM); in experiment [2], 4 µg/mL (≈ 11.1 µM); in experiment [3] it was 4 µg/mL (≈ 11.1 µM); in experiment [6], 8 µg/mL (≈ 22.3 µM). In addition, in experiment [7], the MIC80 came out at 4 µg/mL (≈ 11.1 µM).
Take `CC(C)(C)c1ccc(OCCCn2c3c(c4cc(F)ccc42)CNCC3)cc1`: the MIC80 in experiment [8] was determined as 4 µg/mL (≈ 10.5 µM); in experiment [9], 16 µg/mL (≈ 42 µM); in experiment [1] it was 8 µg/mL (≈ 21 µM); in experiment [2], 4 µg/mL (≈ 10.5 µM); in experiment [3], 8 µg/mL (≈ 21 µM); in experiment [6], 4 µg/mL (≈ 10.5 µM). The compound also gave an MIC80 in [7] of 4 µg/mL (≈ 10.5 µM).
Take `Fc1ccc2c(c1)c1c(n2CCCOc2cccc(Br)c2)CCNC1`: the MIC80 in experiment [8] came out at 16 µg/mL (≈ 39.7 µM); in experiment [9], 4 µg/mL (≈ 9.92 µM); in experiment [1], 2 µg/mL (≈ 4.96 µM); in [2], 4 µg/mL (≈ 9.92 µM); in experiment [3], 4 µg/mL (≈ 9.92 µM); in experiment [6], 4 µg/mL (≈ 9.92 µM). In addition, the MIC80 in experiment [7] worked out at 2 µg/mL (≈ 4.96 µM).
Turning to `Cc1ccc2c(c1)c1c(n2CCCOc2ccc(F)cc2)CCNC1`, the MIC80 in experiment [8] was 64 µg/mL (≈ 189 µM); in experiment [9], 16 µg/mL (≈ 47.3 µM); in experiment [1], 4 µg/mL (≈ 11.8 µM); in experiment [2], 16 µg/mL (≈ 47.3 µM); in [3] it was 16 µg/mL (≈ 47.3 µM); in experiment [6], 4 µg/mL (≈ 11.8 µM). Besides, the MIC80 in [7] worked out at 4 µg/mL (≈ 11.8 µM).
On to `Fc1ccc2c(c1)c1c(n2CCCOc2cccc(F)c2F)CCNC1`, for which the MIC80 in [8] stood at 16 µg/mL (≈ 44.4 µM); in experiment [9], 4 µg/mL (≈ 11.1 µM); in experiment [1], 32 µg/mL (≈ 88.8 µM); in experiment [2] it was 4 µg/mL (≈ 11.1 µM); in [3] it was 32 µg/mL (≈ 88.8 µM); in experiment [6], 32 µg/mL (≈ 88.8 µM). Moreover, the MIC80 in experiment [7] amounted to 16 µg/mL (≈ 44.4 µM).
